Measurements from US10898613B2, “Hyaluronic acid gel with a divalent zinc cation” (Nestlé Skin Health SA, priority 2016, dated 2021).

Columns and labels:
[1] = Rheology (elastic modulus G′ within the LVR) of HA gel formulations after autoclaving; assay type: physicochemical; settings: after autoclaving (F0~19); 1 mM Zn salt, HA 20 mg/mL
Experimental: The rheological properties of the formulations were analyzed using an Ahres G2 reometer (measure system PP 40, gap 1.00 mm). Initially a strain sweep was made to find the linear viscoelastic region (LVR) and then the viscoelastic properties were measured within the LVR.

[2] = Zinc release from gels, USP-paddle apparatus with gel containers, Zn content by ICP; assay type: physicochemical; settings: zinc released from HA gels of Example 4 with 1 mM zinc salt; 600 ml release medium, 30 rpm, 37° C.
Experimental: The zinc release from the gels was measured by the USP-paddle apparatus using special gel containers in which the gel was placed. A gel containing 1 mM ZnCl2 was manufactured according to Example 1. The gel was filled into 7 gel containers with a fixed volume of 1 ml. The geometry of the filled gel was a cylinder […] in diameter and 3 mm deep. The gels were covered by a mesh-size plastic net (PA80 m=200 mesh, AB Derma) and a coarse stainless steel net, care was taken to assure that no air was trapped between the gel and the plastic net.
Each gel container was immersed in 600 ml thermostated release medium, stirred at 30 rpm and maintained at 37° C. using a Distek Evolution 6100 (North Brunswick, N.J.). At predetermined time points, gel containers were removed and the Zn content in the container was determined using ICP.
Gels prepared according to example 4 containing zinc chloride (1 mM), zinc gluconate (1 mM) and zinc citrate (1 mM) respectively were analyzed as described in Example 7.

Molecule	Effect of Zn on G′ of the gel versus reference swelled in buffer only [1]	time for 25% released [2] [h]
O=C([O-])CC(O)(CC(=O)[O-])C(=O)[O-].O=C([O-])CC(O)(CC(=O)[O-])C(=O)[O-].[Zn+2].[Zn+2].[Zn+2] [zinc citrate]	stabilizing effect	~3
zinc gluconate	stabilizing effect	~24
[Cl-].[Cl-].[Zn+2] [zinc chloride]	stabilizing effect	~75
